Source: publication PMC10424186 (Journal of Medicinal Chemistry, 2023)
Read-outs that look alike come from different tables or passages of the source.

Tests used:
[1] = test system: U2OS bone osteosarcoma cells; test: MTS cell viability assay, U2OS; format: cell-based; conditions: for CC50: Homo sapiens
From the text: (§1) A biochemical readout of JMJD5 arginine residue hydroxylase activity in cells is not available; we thus focused our studies on biological readouts previously linked to JMJD5 function in order to investigate cellular responses resulting from JMJD5 inhibitor treatment. JMJD5 loss of function by RNA interference is reported to affect tumor cell proliferation and viability;[16],[18],[20],[21] we therefore studied the effects of 19i and 19j on the growth of three different tumor cell lines.
(§2) (a) U2OS bone osteosarcoma, (b) A549 lung adenocarcinoma, and (c) PC3 prostate adenocarcinoma cells were treated with the indicated doses of 19i and 19j (1.0, 5.0, 10, 50, and 100 μM) for 72 h and then tested for viability using the 3-(4,5-dimethylthiazol-2-yl)-5-(3-carboxymethoxyphenyl)-2-(4-sulfophenyl)-2H-tetrazolium (MTS) assay. A549 cells were treated with 19i or 19j (1.0 μM) for 24 h, then stained with (d) propidium iodide and analyzed by FACS or (e) DAPI staining for nuclei (left) and anti-53BP1 (for 53BP1 bodies, right). Cells were counted for 53BP1 bodies (f) and micronuclei (g). Data represent mean ± SEM from three (a–d) or four (f–g) independent replicates. For 53BP1 bodies, a minimum of 300 cells were counted per sample. For micronuclei, a minimum of 500 cells were counted per sample. Statistical analyses used one-way ANOVA with Tukey’s post hoc test [with p-value ≤ 0.01 (**)]. […]
Cell proliferation/viability was measured using MTS (CellTiter 96 Aqueous One 667 Solution Cell Proliferation Assay, Promega) and CyQUANT (Thermo Fisher) assays. […] Plates were incubated for 1 h at 37 °C under 5% CO2, protected from light, and then the absorbance was measured at 490 nm using an EnSpire Multimode plate reader (PerkinElmer). […] The cells were incubated for 1 h at 37 °C under 5% CO2, protected from light; fluorescence was then measured with excitation at ∼485 nm and emission detection at ∼530 nm using an EnSpire Multimode plate reader.

A549 cells [2] = test: Replication stress: 53BP1 bodies and micronuclei (immunofluorescence/DAPI); format: cell-based; conditions: 1.0 μM, 24 h
Procedure: (§3) (a) U2OS bone osteosarcoma, (b) A549 lung adenocarcinoma, and (c) PC3 prostate adenocarcinoma cells were treated with the indicated doses of 19i and 19j (1.0, 5.0, 10, 50, and 100 μM) for 72 h and then tested for viability using the 3-(4,5-dimethylthiazol-2-yl)-5-(3-carboxymethoxyphenyl)-2-(4-sulfophenyl)-2H-tetrazolium (MTS) assay. A549 cells were treated with 19i or 19j (1.0 μM) for 24 h, then stained with (d) propidium iodide and analyzed by FACS or (e) DAPI staining for nuclei (left) and anti-53BP1 (for 53BP1 bodies, right). Cells were counted for 53BP1 bodies (f) and micronuclei (g). Data represent mean ± SEM from three (a–d) or four (f–g) independent replicates. For 53BP1 bodies, a minimum of 300 cells were counted per sample. For micronuclei, a minimum of 500 cells were counted per sample. Statistical analyses used one-way ANOVA with Tukey’s post hoc test [with p-value ≤ 0.01 (**)].
(§4) Because JMJD5 RNA interference has been associated with disturbances in the cell cycle,[1],[2],[81],[82] we measured phase distribution by flow cytometry in A549 cells (Figure 6d). Treatment with 19i or 19j for 24 h caused a reduction in G1-phase cells, with a corresponding increase in S- and G2/M-phase cells. […] We have recently reported that JMJD5 loss of function induces replication stress,[14] which is defined as a perturbation that slows or stalls DNA replication.[83] Unresolved replication stress can be measured by an increase in G1-phase 53BP1 “bodies” and micronuclei (Figure 6e), which are extranuclear DNA bodies that result from DNA cleavage and genome instability following replication stress.
Cells on coverslips were pre-extracted on ice for 5 min using a buffer containing 20 mM NaCl, 3 mM MgCl2, 300 mM sucrose, 10 mM PIPES, and 0.5%v/v Triton X-100 and fixed using 4%v/v paraformaldehyde (PFA) in PBS for 15 min at ambient temperature. Cells were then permeabilized in 0.1%v/v Triton X-100 in PBS at ambient temperature for 10 min and blocked in 1%w/v bovine serum albumin (BSA) in PBS for 1 h at ambient temperature. Coverslips were incubated with anti-53BP1 antibody (Bio-Techne, NB100-904V) diluted in 1%w/v BSA in PBS at ambient temperature for 1 h in the dark. Coverslips were then washed three times with cold 1%w/v BSA in PBS following incubation for 1 h with secondary antibodies (anti-mouse 555 nm A31570 or anti-rabbit 488 nm A11070, Thermo Fisher). The coverslips were washed three times with cold PBS and incubated for 10 min with 4′,6-diamidino-2-phenylindole (DAPI) (Invitrogen) to stain for nuclei. Prolong Gold Antifade Reagent (Cell Signaling Technology) was used to mount the coverslips onto microscope slides. Images were taken using 40× objective on a Leica DM6000 fluorescent microscope and processed with ImageJ.

[3] = test system: A549 lung adenocarcinoma cells; test: MTS cell viability assay, A549; format: cell-based; conditions: Homo sapiens, 72 h, read-out: half-maximum cytotoxicity concentration (CC50)
From the text: as §1
as §2, with “Data represent mean ± SEM from three (a–d) or four (f–g) independent replicates.” left out, “sample.” for “sample. Statistical analyses used one-way ANOVA with Tukey’s post hoc test [with p-value ≤ 0.01 (**)].”
(§5) Cell proliferation/viability was measured using MTS (CellTiter 96 Aqueous One 667 Solution Cell Proliferation Assay, Promega) and CyQUANT (Thermo Fisher) assays. […]

A549 cells [4] = test: Cell-cycle analysis (propidium iodide, FACS); format: cell-based; conditions: 1.0 μM, 24 h
Procedure: as §3, §4
Cell-cycle analyses were performed using A549 cells fixed in ice-cold 70%v/v ethanol. Cells were incubated with 100 μg/mL RNase A (Thermo Fisher Scientific), stained with 20 μg/mL propidium iodide, and then analyzed using Beckman Coulter CytoFLEX S. Representative FACS profiles were generated using Beckman CytExpert software.

[5] = test system: PC3 prostate adenocarcinoma cells; test: MTS cell viability assay, PC3; format: cell-based; conditions: 1.0–100 μM, 72 h
From the text: as §1
as §2, with “Data represent mean ± SEM from three (a–d) or four (f–g) independent replicates.” left out, “sample.” for “sample. Statistical analyses used one-way ANOVA with Tukey’s post hoc test [with p-value ≤ 0.01 (**)].”
as §5

[6] = test system: U2OS bone osteosarcoma cells; test: CyQuant viability assay (DNA content), U2OS; format: cell-based; conditions: 1.0–100 μM, 72 h
Procedure: Cell proliferation/viability was measured using MTS (CellTiter 96 Aqueous One 667 Solution Cell Proliferation Assay, Promega) and CyQUANT (Thermo Fisher) assays. CellTiter 96 Aqueous MTS reagent (Promega) and phenazine methosulfate (Sigma-Aldrich) were dissolved in phosphate-buffered saline (PBS) according to the manufacturer’s protocol. The MTS working reagent was made according to the manufacturer’s protocol and added to each well containing the cells. Plates were incubated for 1 h at 37 °C under 5% CO2, protected from light, and then the absorbance was measured at 490 nm using an EnSpire Multimode plate reader (PerkinElmer). For the cyQUANT assay, the reagents were prepared according to the manufacturer’s protocol and added to the cells. The cells were incubated for 1 h at 37 °C under 5% CO2, protected from light; fluorescence was then measured with excitation at ∼485 nm and emission detection at ∼530 nm using an EnSpire Multimode plate reader.
viability of U2OS bone osteosarcoma cells.
derivatives 19i and 19j (1.0, 5.0, 10, 50, 100 μM) for 72 h and then tested for viability using the CyQuant assay,
which measures DNA content. Data represent mean ± SEM from independent experiments.
(1 picture or pasted object on this page, not shown here)

FIH = biological target: T1, FIH (Homo sapiens, UniProt Q9NWT6); test: SPE-MS FIH inhibition assay (HIF-1α CAD hydroxylation); format: biochemical; conditions: Table 2; His6-FIH 0.15 μM, 5.0 μM HIF-1α CAD; n = 2, mean ± SD
T1 construct: made in house; host or cells: Escherichia coli
Procedure: HIF-α CAD, residues 788–822, for FIH;[70]
Cosubstrate/cofactor stock solutions [L-ascorbic acid/LAA: 50 mM in MQ-grade water; 2-oxoglutarate/2OG: 10 mM in MQ-grade water; ammonium iron(II) sulfate hexahydrate/FAS/(NH4)2Fe(SO4)2·6H2O: 400 mM in 20 mM HCl diluted to 1 mM in MQ-grade water] were freshly prepared from commercial solids (Sigma-Aldrich) on the day the assays were performed. […] FIH,[70] […] SPE-MS inhibition assays were performed as described in the cited literature, using isolated recombinant human enzymes (His6-thioredoxin-JMJD5,[42] His6-PHD2_181–426,[70] His6-FIH,[70] His6-KDM4E,[72],[73] His6-RIOX2_26–465,[87],[88] and His6-AspH315–758[48],[80]) and synthetic peptide substrates (RPS6_128–148 for JMJD5;[42] HIF-α CODD558–574 for PHD2;[70] HIF-α CAD788–822 for FIH;[70] H3_1–15K9me3 for KDM4E;[73] RPL27A31–49 for RIOX2;[44],[71] and hFX-CP101–119 for AspH;[45],[48] see above). For JMJD5, PHD2, FIH, RIOX2, and AspH, substrate hydroxylation was monitored (+16 Da mass shift), while for the KDM4E substrate, demethylation was monitored (−14 Da mass shift) by SPE-MS.

PHD2 = biological target: T2, PHD2 (Homo sapiens, UniProt Q9GZT9); test: SPE-MS PHD2 inhibition assay (HIF-1α CODD hydroxylation); format: biochemical; conditions: Table 2; PHD2 181–426 […], 5.0 μM HIF-1α CODD; n = 2, mean ± SD
T2 construct: His6-PHD2_181–426; made in house; host or cells: Escherichia coli
Procedure: (§6) H3_1-15K9me3, histone 3 (H3), residues 1–15 with K9 of H3-bearing three methyl groups at the N^ε-position, K4 of H3 substituted by an alanine residue, and K14 of H3 by an isoleucine residue,[73] for KDM4E; and RPL27A, residues 31–49, for RIOX2 (Mina53).[44]
(§7) Cosubstrate/cofactor stock solutions [L-ascorbic acid/LAA: 50 mM in MQ-grade water; 2-oxoglutarate/2OG: 10 mM in MQ-grade water; ammonium iron(II) sulfate hexahydrate/FAS/(NH4)2Fe(SO4)2·6H2O: 400 mM in 20 mM HCl diluted to 1 mM in MQ-grade water] were freshly prepared from commercial solids (Sigma-Aldrich) on the day the assays were performed. The JMJD5,[42] PHD2,[70] FIH,[70] KDM4E,[72],[73] RIOX2,[44] and AspH[45] […] For JMJD5, PHD2, FIH, RIOX2, and AspH, substrate hydroxylation was monitored (+16 Da mass shift), while for the KDM4E substrate, demethylation was monitored (−14 Da mass shift) by SPE-MS.

KDM4E = biological target: T3, KDM4E (Homo sapiens, UniProt B2RXH2); test: SPE-MS KDM4E inhibition assay (demethylation of H3 1–15 K9me3); format: biochemical; conditions: Table 2, 10.0 μM H3 1–15 K9me3, n = 2, mean ± SD
T3 construct: made in house; host or cells: Escherichia coli
T3 sequence (B2RXH2 1-506): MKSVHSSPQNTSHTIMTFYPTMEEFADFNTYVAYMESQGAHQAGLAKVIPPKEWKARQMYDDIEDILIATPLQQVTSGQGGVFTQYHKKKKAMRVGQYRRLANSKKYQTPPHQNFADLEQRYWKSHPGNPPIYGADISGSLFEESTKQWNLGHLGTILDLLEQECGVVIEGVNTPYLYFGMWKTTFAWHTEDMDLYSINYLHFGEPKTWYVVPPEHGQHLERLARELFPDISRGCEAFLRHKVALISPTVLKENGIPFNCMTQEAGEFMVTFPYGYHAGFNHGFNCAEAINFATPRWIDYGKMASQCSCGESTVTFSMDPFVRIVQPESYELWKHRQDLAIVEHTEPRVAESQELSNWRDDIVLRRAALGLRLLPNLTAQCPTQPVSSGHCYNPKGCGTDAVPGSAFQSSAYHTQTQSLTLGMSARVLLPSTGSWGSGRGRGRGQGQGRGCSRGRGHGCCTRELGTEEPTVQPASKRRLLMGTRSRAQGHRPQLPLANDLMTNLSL
Procedure: as §6, §7

AspH = biological target: T4, AspH (Homo sapiens, UniProt Q12797); test: SPE-MS AspH inhibition assay (hFX-CP101–119 hydroxylation); format: biochemical; conditions: Table 2; His6-AspH315–758 0.05 μM, 1.0 μM hFX-CP101–119; n = 2, mean ± SD
T4 construct: N-terminally His6-tagged AspH315–758; made in house; host or cells: Escherichia coli
T4 sequence (Q12797 315-758): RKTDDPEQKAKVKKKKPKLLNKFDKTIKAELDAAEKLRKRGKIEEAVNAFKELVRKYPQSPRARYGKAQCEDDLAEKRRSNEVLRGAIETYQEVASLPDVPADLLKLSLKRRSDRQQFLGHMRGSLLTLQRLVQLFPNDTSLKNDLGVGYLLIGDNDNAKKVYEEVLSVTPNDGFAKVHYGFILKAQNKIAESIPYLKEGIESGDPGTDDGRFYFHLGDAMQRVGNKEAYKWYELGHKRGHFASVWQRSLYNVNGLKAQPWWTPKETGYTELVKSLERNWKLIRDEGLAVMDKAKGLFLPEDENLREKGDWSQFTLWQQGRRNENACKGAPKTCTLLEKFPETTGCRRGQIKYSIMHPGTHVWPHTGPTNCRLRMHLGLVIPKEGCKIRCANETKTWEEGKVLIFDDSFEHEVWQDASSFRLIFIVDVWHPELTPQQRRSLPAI
Procedure: as §6, §7

RIOX2 = biological target: T5, RIOX2 (Homo sapiens, UniProt Q8IUF8); test: SPE-MS RIOX2 inhibition assay (RPL27A31–49 hydroxylation); format: biochemical; conditions: Table 2; His6-RIOX2 26–465 […], 5.0 μM RPL27A31–49; n = 2, mean ± SD
T5 construct: N-terminally His6-tagged RIOX2_26–465; made in house; host or cells: Escherichia coli
T5 sequence (Q8IUF8 26-465): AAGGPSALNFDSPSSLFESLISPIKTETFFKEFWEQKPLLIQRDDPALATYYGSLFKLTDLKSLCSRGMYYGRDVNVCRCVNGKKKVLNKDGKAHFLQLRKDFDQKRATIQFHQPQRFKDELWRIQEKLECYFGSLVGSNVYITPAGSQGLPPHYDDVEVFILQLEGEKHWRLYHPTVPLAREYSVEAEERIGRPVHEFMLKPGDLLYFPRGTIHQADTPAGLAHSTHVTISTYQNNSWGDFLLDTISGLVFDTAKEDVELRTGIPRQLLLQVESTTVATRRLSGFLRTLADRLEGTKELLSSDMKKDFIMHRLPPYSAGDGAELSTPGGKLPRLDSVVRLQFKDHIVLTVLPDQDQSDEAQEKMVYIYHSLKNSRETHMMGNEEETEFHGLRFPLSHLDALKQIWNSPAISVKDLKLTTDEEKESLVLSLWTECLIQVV
Procedure: Cosubstrate/cofactor stock solutions [L-ascorbic acid/LAA: 50 mM in MQ-grade water; 2-oxoglutarate/2OG: 10 mM in MQ-grade water; ammonium iron(II) sulfate hexahydrate/FAS/(NH4)2Fe(SO4)2·6H2O: 400 mM in 20 mM HCl diluted to 1 mM in MQ-grade water] were freshly prepared from commercial solids (Sigma-Aldrich) on the day the assays were performed. […] For JMJD5, PHD2, FIH, RIOX2, and AspH, substrate hydroxylation was monitored (+16 Da mass shift), while for the KDM4E substrate, demethylation was monitored (−14 Da mass shift) by SPE-MS.

T2 sequence (Q9GZT9 181-426): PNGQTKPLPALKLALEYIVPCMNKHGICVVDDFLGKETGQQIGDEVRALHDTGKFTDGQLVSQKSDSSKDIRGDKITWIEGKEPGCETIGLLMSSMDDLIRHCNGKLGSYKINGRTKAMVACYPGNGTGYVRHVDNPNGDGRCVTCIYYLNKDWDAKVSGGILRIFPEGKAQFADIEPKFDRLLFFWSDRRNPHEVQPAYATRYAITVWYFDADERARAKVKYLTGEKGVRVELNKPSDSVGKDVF
T1 sequence (Q9NWT6 whole entry): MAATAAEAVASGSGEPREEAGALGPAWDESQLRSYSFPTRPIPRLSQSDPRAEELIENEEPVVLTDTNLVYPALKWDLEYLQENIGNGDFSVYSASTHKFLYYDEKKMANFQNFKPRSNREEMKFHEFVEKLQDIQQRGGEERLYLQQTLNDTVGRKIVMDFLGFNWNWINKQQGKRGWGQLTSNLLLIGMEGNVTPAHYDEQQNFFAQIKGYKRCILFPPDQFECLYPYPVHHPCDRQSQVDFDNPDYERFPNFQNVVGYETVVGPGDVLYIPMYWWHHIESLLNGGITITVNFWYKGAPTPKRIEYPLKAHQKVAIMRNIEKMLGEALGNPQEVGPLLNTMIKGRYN

SMILES | effect on cell growth (in words) ([1]; 1.0–100 μM, 72 h, MTS) | CC50 ([1]; supplementary CSV, read-out: CC50 U2OS cells) [µM] | 53BP1 bodies (A549 cells [2]) | micronuclei (A549 cells [2]) | CC50 [3] [µM] | G1-phase cells (A549 cells [4]) | S- and G2/M-phase cells (A549 cells [4]) | Sub-G1-phase cell numbers (A549 cells [4]) | effect on cell growth (in words) [5] | viability (CyQuant, in words) [6] | CC50 ([1]; 72 h, MTS, read-out: half-maximum cytotoxicity concentration (CC50)) [µM] | IC50 (FIH) [µM] | IC50 (PHD2) [µM] | IC50 (KDM4E) [µM] | IC50 (AspH) [µM] | IC50 (RIOX2) [µM]
COC(=O)c1cc(C(=O)OC)c(NCc2ccccc2OC)cn1 [Compound 19i] | did not significantly affect | > 100 | significantly induced | significantly induced | 10.7 | reduction | increase | increased | did not significantly affect | reduced viability |  |  |  |  |  | 
COC(=O)c1cc(C(=O)OC)c(NCc2ccccc2C2CC2)cn1 [Compound 19j] |  |  | significantly induced | significantly induced | 2.1 | reduction | increase | increased |  | reduced viability | 10 |  |  |  |  | 
O=C(O)c1cc(C(=O)O)c(NCc2ccccc2C2CC2)cn1 [Compound 20j, 5-((2-cyclopropylbenzyl)amino)pyridine-2,4-dicarboxylic acid] |  |  |  |  |  |  |  |  |  |  |  | > 50 | > 50 | > 50 | 8.9 ± 5 | > 50
